Laboratory results published in US11066386B2, “CGRP receptor antagonists” (Eli Lilly and Company, priority 2017, dated 2021).
Where two headings read alike, the source gives them in different places.

What was measured:
[1] = biological target: T1, hCGRP (human calcitonin gene-related peptide) receptor (Homo sapiens, UniProt O60894+Q16602); test: Inhibition of cAMP production by CGRP receptor antagonists (HTRF) in SK-N-MC cells; type: cell-based; conditions: human CGRP 0.8 nM as agonist, mean ±SEM, n=16, read-out: Kb measured at human CGRP
T1 construct: Cultured SK-N-MC neuroblastoma cells that endogenously express the hCGRP receptor (ATCC); host or cells: SK-N-MC neuroblastoma cells
Text: Inhibition of cAMP Production by CGRP Receptor Antagonists
The hCGRP (human calcitonin gene-related peptide) receptor is functionally coupled to the Gas proteins. Stimulation of hCGRP results in an increased synthesis of intracellular cAMP and can be blocked by the addition of receptor antagonists. Receptor activity is thus a reflection of the amount of cAMP present within cells which can be detected using standard in vitro technology. […]
Data Analysis: The amount of intracellular cAMP is quantitated using HTRF technology (Cisbio) as per vendor instructions. […] The HTRF signal is immediately detected using an ENVISION® plate reader (Perkin-Elmer) to calculate the ratio of fluorescence at […]. […] Relative EC50 values are calculated from the top-bottom range of the concentration response curve using a four-parameter logistic curve fitting program (ACTIVITYBASE® v5.3.1.22 or GENEDATA SCREENER® v12.0.4), and Kb values are estimated as agonist-corrected IC50 values using the equation: Kb=(IC50)[1+([Agonist]/EC50)]. […]

[2] = biological target: T2, ABCB1, Human P-Glycoprotein (Pgp) (Homo sapiens, UniProt P08183); test: In vitro determination of efflux by Pgp, bi-directional transport across MDCKII cells; type: in vitro ADME; conditions: MDCKII cells expressing human ABCB1, 5 μM substrate, 60 min
T2 construct: host or cells: MDCKII cells
Protocol: In Vitro Determination of Efflux by ABCB1, Human P-Glycoprotein (Pgp)
Cell Culture: MDCKII cells stably expressing human wild-type ABCB1 (Pgp) are obtained from the Netherlands Cancer Institute (Amsterdam, The Netherlands). MDCK cells are maintained as described previously (Desai et al., Mol Pharm 10:1249-1261, 2013).
Bi-directional transport across MDCK cells: The assay is essentially conducted as described previously (Desai et al., Mol Pharm 10:1249-1261, 2013). Transport is measured in both directions across uninhibited and inhibited cell monolayers using a substrate concentration of 5 μM diluted from a 10 mM DMSO stock solution (final DMSO concentration of 0.05%) and a single 60-min time interval. […] The apparent permeability coefficients (Papp) are estimated as the slope of the mass transported per 60 min relative to the total recovered mass. The basal-to-apical (B-A)/apical-to-basal (A-B) Papp ratios are calculated in the absence or presence of inhibitor in each cell line for net efflux ratio (NER).

[3] = Rat plasma and brain homogenate protein binding by equilibrium dialysis; type: in vitro ADME
Protocol: Determination of plasma and brain protein binding: Rat plasma and brain homogenate protein in vitro binding is determined using equilibrium dialysis, as described elsewhere [Zamek-Gliszczynski et al., J Pharm Sci, 101:1932-1940, 2012]. The results are reported as fraction unbound in plasma (fu,plasma) and brain (fu,brain), which are then utilized to calculate Kp,uu,brain, as described in Table 2. Rat fu,plasma and fu,brain of the compound of Example 1 are determined to be 0.277 and 0.126, respectively.

[4] = In vivo determination of unbound brain-to-plasma partition coefficient (Kp,uu,brain) in rats; conditions: 10 mg/kg oral; for concentration at 0.5 h / concentration at 2 h: male, Sprague-Dawley, oral, 10 mg/kg
Protocol: In Vivo Determination of Unbound Brain-to-Plasma Partition Coefficient (Kp,uu,brain) in Rats
Unbound brain-to-plasma partition coefficient (Kp,uu,brain) is one of the key pharmacokinetic parameter for evaluating a compound's ability to cross the blood-brain barrier (BBB) (Hammarlund-Udenaes, M.; Friden, M.; Syvanen, S.; Gupta, A. On the Rate and Extent of Drug Delivery to the Brain. Pharm. Res. 2008, 25 (8), 1737-1750).
Study populations: Animal studies are performed under protocols approved by the Covance Institutional Animal Care and Use Committee. Male Sprague-Dawley rats weighing 250-350 g are obtained from Harlan Sprague Dawley Inc. (Indianapolis, Ind.). Animals have access to food and water ad libitum before and during the study.
Dose administration: Animals each receive 10 mg/kg of the CGRP receptor antagonist compound of Example 1, administered orally in 10 ml/kg of hydroxyethylcellulose 1% w/v/polysorbate 80 0.25% v/v/Antifoam 1510-US 0.05% v/v/in purified water (probe sonicated).
Pharmacokinetic sampling: Three animals per time point are used. The blood (by cardiac puncture) and brain samples are collected at 0.5 and 2 h post dose. The blood samples are treated with K3-EDTA anticoagulant, and plasma is obtained by centrifugation at 1600 g for 10 minutes. The brain samples are weighed and homogenized, without perfusion. All samples are stored at −70° C. until analysis by LC-MS/MS to determine the concentration of the compound of Example 1 in plasma and brain at each time point.
Kp,uu,brain is calculated for each time point from the expression below where individual components are derived from a combination of in vitro and in vivo measurements carried out as described above:
[formula] where Ctotal,brain, Cu,brain, Ctotal,plasma and Cu,plasma are total and unbound brain and plasma concentrations, and fu,brain and fu,plasma are fractions unbound in brain and plasma, respectively.

T2 sequence (P08183 whole entry): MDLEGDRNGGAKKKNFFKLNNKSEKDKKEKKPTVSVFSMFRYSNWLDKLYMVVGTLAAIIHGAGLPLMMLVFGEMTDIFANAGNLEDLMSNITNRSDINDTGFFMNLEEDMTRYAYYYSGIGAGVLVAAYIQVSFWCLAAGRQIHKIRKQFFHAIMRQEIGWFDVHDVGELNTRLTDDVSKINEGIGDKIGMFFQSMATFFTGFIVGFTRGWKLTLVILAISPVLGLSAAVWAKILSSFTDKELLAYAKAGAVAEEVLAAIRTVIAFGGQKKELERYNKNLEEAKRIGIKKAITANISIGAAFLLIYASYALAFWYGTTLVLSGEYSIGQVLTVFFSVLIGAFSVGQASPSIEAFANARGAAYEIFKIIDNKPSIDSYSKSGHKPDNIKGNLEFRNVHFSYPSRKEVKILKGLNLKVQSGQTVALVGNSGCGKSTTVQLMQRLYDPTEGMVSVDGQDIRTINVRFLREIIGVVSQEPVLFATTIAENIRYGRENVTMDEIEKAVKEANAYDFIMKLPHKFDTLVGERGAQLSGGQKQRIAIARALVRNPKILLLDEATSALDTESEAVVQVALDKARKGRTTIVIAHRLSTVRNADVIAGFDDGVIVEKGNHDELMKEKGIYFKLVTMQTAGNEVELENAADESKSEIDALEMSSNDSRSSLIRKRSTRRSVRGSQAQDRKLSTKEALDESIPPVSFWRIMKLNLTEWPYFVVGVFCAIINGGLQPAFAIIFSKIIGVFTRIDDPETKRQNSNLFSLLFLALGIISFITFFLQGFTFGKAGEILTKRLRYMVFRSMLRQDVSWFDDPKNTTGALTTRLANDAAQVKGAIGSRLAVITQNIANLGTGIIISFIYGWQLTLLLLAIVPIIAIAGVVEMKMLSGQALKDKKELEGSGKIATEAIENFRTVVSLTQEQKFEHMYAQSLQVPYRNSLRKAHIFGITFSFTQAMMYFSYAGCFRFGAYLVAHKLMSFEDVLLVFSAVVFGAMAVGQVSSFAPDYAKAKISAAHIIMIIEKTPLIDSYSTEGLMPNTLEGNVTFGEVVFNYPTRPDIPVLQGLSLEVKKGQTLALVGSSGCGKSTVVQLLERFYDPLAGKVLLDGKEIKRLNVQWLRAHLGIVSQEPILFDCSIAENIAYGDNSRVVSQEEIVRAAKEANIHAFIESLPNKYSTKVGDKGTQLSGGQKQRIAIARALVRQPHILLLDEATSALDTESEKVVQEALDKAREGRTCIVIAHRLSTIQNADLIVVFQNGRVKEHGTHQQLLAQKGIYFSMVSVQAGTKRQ
T1 sequence (Q16602 23-461): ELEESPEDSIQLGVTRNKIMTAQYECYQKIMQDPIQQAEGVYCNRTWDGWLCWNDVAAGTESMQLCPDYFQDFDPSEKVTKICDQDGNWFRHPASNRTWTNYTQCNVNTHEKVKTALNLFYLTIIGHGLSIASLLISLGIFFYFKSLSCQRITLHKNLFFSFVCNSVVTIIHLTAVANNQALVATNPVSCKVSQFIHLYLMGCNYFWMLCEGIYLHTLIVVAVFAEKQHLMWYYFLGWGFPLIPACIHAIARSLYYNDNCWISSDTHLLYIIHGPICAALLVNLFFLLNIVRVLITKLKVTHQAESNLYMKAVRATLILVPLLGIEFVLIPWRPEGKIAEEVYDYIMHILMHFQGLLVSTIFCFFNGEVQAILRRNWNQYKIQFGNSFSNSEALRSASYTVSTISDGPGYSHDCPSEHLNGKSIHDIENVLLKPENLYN
T1 sequence (O60894 27-148): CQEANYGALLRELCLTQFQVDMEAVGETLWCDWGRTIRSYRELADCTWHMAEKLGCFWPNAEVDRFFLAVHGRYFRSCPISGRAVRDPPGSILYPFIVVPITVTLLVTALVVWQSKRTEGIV

- Kb [1]: 0.31 ± 0.21 nM
- net efflux ratio (NER) for efflux by Pgp [2]: 4.1
- fraction unbound in brain (fu,brain) ([3]; rat brain homogenate): 0.126
- fraction unbound ([3]; rat plasma, read-out: fraction unbound in plasma (fu,plasma)): 0.277
- Unbound brain conc. (Cu,brain) ([4]; male Sprague-Dawley rats, 0.5 hr, using rat fu,brain 0.126, mean +/- SD): 46 ± 9 nM
- Unbound brain conc. (Cu,brain) ([4]; male Sprague-Dawley rats, 2.0 hr, using rat fu,brain 0.126, mean +/- SD): 51 ± 10 nM
- concentration at 0.5 h ([4]; rat, brain, 0.5 hr, mean +/- SD, read-out: Total brain conc. (Ctotal,brain)): 365 ± 67 nM
- concentration at 0.5 h ([4]; rat, brain, 0.5 hr, using rat fu,brain 0.126, mean +/- SD, read-out: Unbound brain conc. (Cu,brain)): 46 ± 9 nM
- concentration at 2 h ([4]; rat, brain, 2.0 hr, mean +/- SD, read-out: Total brain conc. (Ctotal,brain)): 405 ± 83 nM
- concentration at 2 h ([4]; rat, brain, 2.0 hr, using rat fu,brain 0.126, mean +/- SD, read-out: Unbound brain conc. (Cu,brain)): 51 ± 10 nM
- concentration at 0.5 h ([4]; rat, plasma, 0.5 hr, mean +/- SD, read-out: Total plasma conc. (Ctotal,plasma)): 497 ± 69 nM
- concentration at 0.5 h ([4]; rat, plasma, 0.5 hr, using rat fu,plasma 0.277, mean +/- SD, read-out: Unbound plasma conc. (Cu,plasma)): 138 ± 19 nM
- concentration at 2 h ([4]; rat, plasma, 2.0 hr, mean +/- SD, read-out: Total plasma conc. (Ctotal,plasma)): 531 ± 129 nM
- concentration at 2 h ([4]; rat, plasma, 2.0 hr, using rat fu,plasma 0.277, mean +/- SD, read-out: Unbound plasma conc. (Cu,plasma)): 147 ± 36 nM
- Kp uu at 0.5 h ([4]; rat, brain/plasma, male Sprague-Dawley rats, 0.5 hr, mean +/- SD): 0.34 ± 0.05
- Kp uu at 2 h ([4]; rat, brain/plasma, male Sprague-Dawley rats, 2.0 hr, mean +/- SD): 0.35 ± 0.01
SMILES: Cc1cc(OCCc2ccc([C@@H](C)[C@]3(C)CC(=O)NC3=O)cc2)cc(C)n1 [Example 1, (3S)-3-[(1R)-1-[4-[2-[(2,6-dimethyl-4-pyridyl)oxy]ethyl]phenyl]ethyl]-3-methyl-pyrrolidine-2,5-dione]
